# Data published in US20240208965A1, “HETEROARYL ALKYLENE SUBSTITUTED 2-OXOQUINAZOLINE DERIVATIVES AS METHIONINE ADENOSYLTRANSFERASE 2A INHIBITORS” (IDEAYA BIOSCIENCES, INC., priority 2020, published 2024).
# Molecular target: T1, Human MAT2A (Homo sapiens, UniProt P31153)
# T1 construct: Human MAT2A: Cepter, amino acids 1-395 Clone ID 334, lot 00023-148; purchased Cepter clone ID 334, lot 00023-148
# Assay: Phosphate Sensor Fluorescence Assay (Biologic Example B)
# Assay type: biochemical
# Settings: MAT2A inhibition
# Experimental: The ability of the compound of present disclosure to inhibit MAT2A enzyme was determined using a Phosphate Sensor Fluorescence Assay described below.
# Biologic Example B. Phosphate Sensor Fluorescence Assay
# MAT2A enzyme is incubated with a test compound in DMSO or DMSO and its substrates (L-methionine and ATP) in a microtiter plate. The enzymatic reaction is stopped by the addition of Working Phosphate Sensor Mixture. The plate is analyzed for fluorescence at 450 nm. The high control (DMSO with enzyme and its substrates) gives high fluorescence which represents no inhibition of enzymatic activity while the low control (DMSO with MAT2A substrates and no enzyme) gives low fluorescence which represents full inhibition of enzymatic activity.
# • Human MAT2A: Cepter, amino acids 1-395 Clone ID 334, lot 00023-148 • Tris, pH 7.5: Invitrogen cat #15567-027 • KCl: Ambion cat #AM9640G • MgCl2: Ambion cat #AM9530G • Brij-35: Sigma cat B4184-10ML • DTT: Goldbio cat #DTT100 • BGG: Sigma cat #G5009-25G • PNP: Novus Biologicals cat #NBP1-50872 • 7-MEG: Cayman Chemical cat #15988 • L-Methionine: JTBaker P/N 2085-05 • ATP: Promega P/N V915B • Phosphate Sensor: Invitrogen cat #PV4407 • EDTA: Life Tech cat #15575-038 • Assay plate: 384-well black polypropylene plate: Corning P/N 3573
# • Assay Buffer: 50 mM Tris, pH 7.5/50 mM KCl/10 mM MgCl2/0.01% Brij-35/1 mM DTT/0.01% BGG/40 nM PNP/6 uM 7-MEG • MAT2A: 5.8 nM MAT2A (1-395), Cepter, clone ID 334, lot 00023-148 before the addition of Working Phosphate Sensor Mixture • L-methionine: 500 uM before the addition of Working Phosphate Sensor Mixture • ATP: 500 uM before the addition of Working Phosphate Sensor Mixture
# For the assay, a mixture of 1 mM L-methionine/1 mM ATP (2× final pre-stopped concentration) in assay buffer; MAT2A (2× final pre-stopped concentration) in Assay Buffer and Working Phosphate Sensor Mixture (1.5 uM Phosphate Sensor/30 mM EDTA in Assay Buffer, which is 3× final concentrations) were prepared. Test compounds or DMSO were added to the appropriate well using a Beckman Coulter Echo 550 acoustic liquid handler. 10 μL/well of Assay Buffer was added to the wells corresponding to the negative control and 10 μL/well of MAT2A was added to all the wells except for those corresponding to the negative control. After incubating the plate at room temperature for 15 minutes, 10 μL/well of the 1 mM L-methionine/1 mM ATP mixture was added to all wells. The plate was centrifuged at 1000 rpm for 1 minute and then incubated at room temperature for 1 hour. 10 μL of the Working Phosphate Sensor Mixture was added to all wells and the plate was centrifuged at 1000 rpm for 1 minute. The plate was read for fluorescence at 450 nm after exciting at 430 nm on a Tecan Spark microplate reader.
# Percent inhibition was calculated in Chemical and Biological Information System (CBIS), (ChemInnovation Software Inc.). Curves were fitted by CBIS as % inhibition vs. log [compound concentration] using a 4-parameter inhibition model.
# Fit=(A+((B−A)/(1+((C/x)^D))))
# Compounds 1.001-1.028 were tested using the procedure described in Bioogical Example A, described above. Compounds 1.029-1.070 were tested using the procedure described in Biological Example B, described above.
# [1] = Biological Example B procedure (Compounds 1.029-1.070), 5.8 nM MAT2A, 500 uM L-methionine, 500 uM ATP
# T1 sequence (P31153 whole entry, the tested form may be a part): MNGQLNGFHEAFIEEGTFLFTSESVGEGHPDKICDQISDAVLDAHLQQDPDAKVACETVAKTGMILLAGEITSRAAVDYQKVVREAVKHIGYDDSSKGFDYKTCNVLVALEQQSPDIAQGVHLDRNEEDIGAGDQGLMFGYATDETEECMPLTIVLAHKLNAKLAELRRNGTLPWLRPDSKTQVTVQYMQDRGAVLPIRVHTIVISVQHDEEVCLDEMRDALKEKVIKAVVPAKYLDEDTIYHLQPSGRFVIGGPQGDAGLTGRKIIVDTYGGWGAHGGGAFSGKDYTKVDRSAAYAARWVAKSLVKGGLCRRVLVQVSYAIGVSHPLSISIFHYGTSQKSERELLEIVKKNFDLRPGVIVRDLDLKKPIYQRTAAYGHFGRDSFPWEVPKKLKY
Structure (SMILES),IC50 [1] [nM],"IC50 (Biological Example B procedure, printed as a numeric bound, not a class symbol) [nM]"
"CCN(C)c1nc(=O)n([C@@H](C)c2cnc[nH]2)c2cc(C(F)(F)F)ccc12 (single isomer, unassigned) [1.035]",10 to 200,
"CC(C)N(C)c1nc(=O)n([C@@H](C)c2cnc[nH]2)c2cc(C(F)(F)F)ccc12 (single isomer, unassigned) [1.037]",10 to 200,
"CC(C)N(C)c1nc(=O)n([C@H](C)c2cnc[nH]2)c2cc(C(F)(F)F)ccc12 (single isomer, unassigned) [1.038]",10 to 200,
"C[C@H](c1cnc[nH]1)n1c(=O)nc(N2CCC2)c2ccc(Br)cc21 (single isomer, unassigned) [1.039]",200 to 500,
"C[C@@H](c1cnc[nH]1)n1c(=O)nc(N2CCC2)c2ccc(Br)cc21 (single isomer, unassigned) [1.040]",10 to 200,
"CC[C@H](c1cnc[nH]1)n1c(=O)nc(N(C)C)c2ccc(C(F)(F)F)cc21 (single isomer, unassigned) [1.041]",10 to 200,
"C[C@@H](c1cnc[nH]1)n1c(=O)nc(N(C)C)c2ccc(Br)cc21 (single isomer, unassigned) [1.044]",< 10,
"C[C@H](c1cnc[nH]1)n1c(=O)nc(N(C)C)c2ccc(Cl)cc21 (single isomer, unassigned) [1.047]",< 10,
"C[C@H](c1cc[nH]n1)n1c(=O)nc(N(C)C)c2ccc(Cl)cc21 (single isomer, unassigned) [1.059]",< 10,
"C[C@H](c1nc[nH]n1)n1c(=O)nc(N(C)C)c2ccc(Cl)cc21 (single isomer, unassigned) [1.060]",10 to 200,
"C[C@H](c1cc[nH]n1)n1c(=O)nc(N)c2ccc(Cl)cc21 (single isomer, unassigned) [1.069]",10 to 200,
"C[C@@H](c1cc[nH]n1)n1c(=O)nc(N)c2ccc(Cl)cc21 (single isomer, unassigned) [1.070]",200 to 500,
"CNc1nc(=O)n(Cc2cnsc2)c2cc(C(F)(F)F)ccc12 [1.029, 1-(Isothiazol-4-ylmethyl)-4-(methylamino)-7-(trifluoromethyl)quinazolin-2(1H)-one]",1000 to 10000,
"CC(c1c[nH]cn1)n1c(=O)nc(N(C)C)c2ccc(Br)cc21 (centres unmarked) [1.031, 1-(1-(1H-imidazol-4-yl)ethyl)-7-bromo-4-(dimethylamino)quinazolin-2(1H)-one]",10 to 200,
"CCC(c1cnc[nH]1)n1c(=O)nc(N(C)C)c2ccc(C(F)(F)F)cc21 (centres unmarked) [1.033, 1-(1-(1H-imidazol-5-yl)propyl)-4-(dimethylamino)-7-(trifluoromethyl)quinazolin-2(1H)-one]",200 to 500,
"CC(c1cnc[nH]1)n1c(=O)nc(N(C)C)c2ccc(C(F)(F)F)nc21 (centres unmarked) [1.046, 1-(1-(1H-Imidazol-5-yl)ethyl)-4-(dimethylamino)-7-(trifluoromethyl)pyrido[2,3-d]pyrimidin-2(1H)-one]",10 to 200,
"CN(C)c1nc(=O)n(Cc2nc[nH]n2)c2cc(C(F)(F)F)ccc12 [1.051, 1-((1H-1,2,4-Triazol-3-yl)methyl)-4-(dimethylamino)-7-(trifluoromethyl)quinazolin-2(1H)-one]",10 to 200,
"CN(C)c1nc(=O)n(Cc2ccccn2)c2nc(C(F)(F)F)ccc12 [1.052, 4-(Dimethylamino)-1-(pyridin-2-ylmethyl)-7-(trifluoromethyl)pyrido[2,3-d]pyrimidin-2(1H)-one]",10 to 200,
"CN(C)c1nc(=O)n(Cc2cccnc2)c2nc(C(F)(F)F)ccc12 [1.053, 4-(Dimethylamino)-1-(pyridin-3-ylmethyl)-7-(trifluoromethyl)pyrido[2,3-d]pyrimidin-2(1H)one]",1000 to 10000,
"CN(C)c1nc(=O)n(Cc2ccncc2)c2nc(C(F)(F)F)ccc12 [1.054, 4-(Dimethylamino)-1-(pyridin-4-ylmethyl)-7-(trifluoromethyl)pyrido[2,3-d]pyrimidin-2(1H)one]",1000 to 10000,
"CN(C)c1nc(=O)n(CC2CNC(=O)C2)c2cc(C(F)(F)F)ccc12 (centres unmarked) [1.057, 4-(Dimethylamino)-1-((5-oxopyrrolidin-3-yl)methyl)-7-(trifluoromethyl)quinazolin-2(1H)-one]",500 to 1000,
"CN(C)c1nc(=O)n(Cc2cn(C)cn2)c2cc(C(F)(F)F)ccc12 [1.058, 4-(Dimethylamino)-1-((1-methyl-1H-imidazol-4-yl)methyl)-7-(trifluoromethyl)quinazolin-2(1H)-one]",1000 to 10000,

# The next lines start with the values.
IC50 [1] [nM],"IC50 (Biological Example B procedure, printed as a numeric bound, not a class symbol) [nM]",Structure (SMILES)
< 10,,"CC(c1cc[nH]n1)n1c(=O)nc(N(C)C)c2ccc(Cl)cc21 (racemic) [1.062, 1-(1-(1H-pyrazol-3-yl)ethyl)-7-chloro-4-(dimethylamino)quinazolin-2(1H)-one]"
10 to 200,,"CCN(C)c1nc(=O)n([C@H](C)c2cnc[nH]2)c2cc(C(F)(F)F)ccc12 (single isomer, unassigned) [1.036]"
200 to 500,,"CC[C@@H](c1cnc[nH]1)n1c(=O)nc(N(C)C)c2ccc(C(F)(F)F)cc21 (single isomer, unassigned) [1.042]"
10 to 200,,"C[C@H](c1cnc[nH]1)n1c(=O)nc(N(C)C)c2ccc(Br)cc21 (single isomer, unassigned) [1.043]"
10 to 200,,"C[C@@H](c1cnc[nH]1)n1c(=O)nc(N(C)C)c2ccc(Cl)cc21 (single isomer, unassigned) [1.048]"
500 to 1000,,"C[C@@H](c1nc[nH]n1)n1c(=O)nc(N(C)C)c2ccc(Cl)cc21 (single isomer, unassigned) [1.061]"
1000 to 10000,,"CN(C)c1nc(=O)n([C@@H](c2c[nH]cn2)C(F)F)c2nc(C(F)(F)F)ccc12 (single isomer, unassigned) [1.063]"
200 to 500,,"CN(C)c1nc(=O)n([C@H](c2c[nH]cn2)C(F)F)c2nc(C(F)(F)F)ccc12 (single isomer, unassigned) [1.064]"
10 to 200,,"CN(C)c1nc(=O)n(Cc2cnc[nH]2)c2cc(C(F)(F)F)ccc12 [1.030, 1-((1H-Imidazol-5-yl)methyl)-4-(dimethylamino)-7-(trifluoromethyl)quinazolin-2(1H)-one]"
10 to 200,,"CC(c1c[nH]cn1)n1c(=O)nc(N2CCC2)c2ccc(Br)cc21 (centres unmarked) [1.032, 1-(1-(1H-imidazol-4-yl)ethyl)-4-(azetidin-1-yl)-7-bromoquinazolin-2(1H)-one]"
200 to 500,,"CN(C)c1nc(=O)n(Cc2cnc[nH]2)c2cc(Cl)ccc12 [1.034, 1-((1H-imidazol-5-yl)methyl)-7-chloro-4-(dimethylamino)quinazolin-2(1H)-one]"
200 to 500,,"CN(C)c1nc(=O)n(C(c2cnc[nH]2)C2CC2)c2cc(C(F)(F)F)ccc12 (centres unmarked) [1.045, 1-(Cyclopropyl(1H-imidazol-5-yl)methyl)-4-(dimethylamino)-7-(trifluoromethyl)quinazolin-2(1H)-one]"
,> 10000,"Cc1ncc(Cn2c(=O)nc(N(C)C)c3ccc(C(F)(F)F)cc32)[nH]1 [1.049, 4-(Dimethylamino)-1-((2-methyl-1H-imidazol-5-yl)methyl)-7-(trifluoromethyl)quinazolin-2(1H)-one]"
1000 to 10000,,"Cc1nc[nH]c1Cn1c(=O)nc(N(C)C)c2ccc(C(F)(F)F)cc21 [1.050, 4-(Dimethylamino)-1-((4-methyl-1H-imidazol-5-yl)methyl)-7-(trifluoromethyl)quinazolin-2(1H)-one]"
200 to 500,,"CN(C)c1nc(=O)n(Cc2cncn2C)c2cc(C(F)(F)F)ccc12 [1.055, 4-(dimethylamino)-1-((1-methyl-1H-imidazol-5-yl)methyl)-7-(trifluoromethyl)quinazolin-2(1H)-one]"
10 to 200,,"CN(C)c1nc(=O)n(Cc2ccn[nH]2)c2cc(Cl)ccc12 [1.056, 1-((1H-pyrazol-5-yl)methyl)-7-chloro-4-(dimethylamino)quinazolin-2(1H)-one]"
